Consider four compounds from patent US20120046357A1, “Benzamide and Napthamide Derivatives Inhibiting Nuclear Factor-Kappa (B) - (NK-kB)” (Profectus Biosciences, Inc., priority 2009, published 2012).

The subject of experiment [1] is NF-κB. The experiment in a line: 293/NFkB-luc reporter cell assay (TNF-α induced luciferase expression). It is filed as cell-based. The note with it: 293/NFkB-luc, 293 cells, pNF-κB-luc reporter, 2 h pretreatment, 20 ng/ml TNF-α 18 h. The protocol:
(§1) Two reporter cell assays were used to determine the ability of the compound of Example 10 to inhibit NF-κB driven transcription. The first assay was a 293-cell based assay with a stably integrated pNF-κB-luc reporter plasmid containing 3 NF-κB promoter elements. The second assay was a 293-cell based assay with a stably integrated pTRH1-NF-κB-dscGFP reporter containing 4 NF-κB promoter elements. Cells were treated with 0, 0.2, 1, 10, 20 and 40 μM of the compound of Example 10 for 2 hours then were induced with 20 ng/ml TNF-α for 18 hours. Following the induction, luminescence or fluorescence was quantified using a Beckman-Coulter 2300 plate reader. […] These values represent the median value generated from three independent experiments. As a control, 0.5% DMSO treated and untreated cells were compared to verify that the compound of Example 10 had no effect on the expression of luciferase or in the readout of the assay. There was a slight decrease in the output from the assay in the DMSO treated population although it was not statistically significant. As a result of the controls, the decrease in activity in the drug treated samples was compared to the DMSO control sample.

The target of a further experiment is T1, p65 (RelA) (Homo sapiens, UniProt Q04206).
T1 construct: purchased Active Motif
The experiment in a line: TransAM NF-κB family DNA binding ELISA, p65. In kind it is biochemical. The note with it: binding to NF-κB consensus oligonucleotide. The protocol: (§2) The binding activity of NF-κB heterodimer or homodimer subunits from activated nuclear extracts or purified recombinant NF-κB proteins exposed to the drug compounds was evaluated using the TransAM NF-κB Family binding ELISA (Active Motif). 3-5 μg of nuclear extracts from TNFα activated Hela or Raji cells (Active Motif) or 20 ng of purified recombinant proteins (p65 and p50 from Active Motif, p52 from Santa Cruz) were incubated for 1 hour at room temperature with 20 μL drug compounds diluted in Complete Lysis buffer without DTT. Treated samples were then transferred to 30 μL Complete Binding Buffer (with DTT) in microplate wells pre-coated with the NF-κB consensus oligonucleotide. […] The plate was incubated for 1 hour at room temperature with gentle shaking and then washed 3 times with 200 μL 1× Wash Buffer. NF-κB p65, p50, p52, RelB, or c-Rel subunits bound to the plate were detected with 100 μL of the primary antibody (diluted 1:1000 in 1× Antibody Buffer) specific for that subunit. The plate was incubated for 1 hour at room temperature and then washed 3 times with 200 μL 1× Wash Buffer. Next, 100 μL of a HRP conjugated goat anti-rabbit antibody (diluted 1:1,000 in 1× Antibody Buffer) was added to each well. The plate was incubated for 1 hour at room temperature and then washed 4 times with 200 μL 1× Wash Buffer. 100 μL of room temperature Developing Solution was added to each well. The reaction was allowed to develop for 2-10 minutes until a medium dark blue color developed (depending on the subunit activity in the lot of extract or lot of recombinant protein used) and then the reaction was stopped with 100 μL Stop Solution yielding a yellow color. Absorbance was recorded using a Becton-Dickinson DTX 880 Multimode Detector at 450 nm with a reference wavelength subtracted at 620 nm. FIGS. 2, 3 and 4 illustrate the effect of Example 10 on inhibiting RelA, RelB and c-Rel binding to NF-κB sites.
(In general: ELISA stands for enzyme-linked immunosorbent assay.)

Experiment [2] has as its system NF-κB. In words: NF-κB/293/GFP reporter cell assay (TNF-α induced GFP expression). It is filed as cell-based. Particulars: Homo sapiens, HEK293, 293 cells, pTRH1-NF-κB-dscGFP reporter, 2 h pretreatment, 20 ng/ml TNF-α 18 h; read-out: NF-KB/293/GFP EC50. The protocol: as §1
Another experiment addresses T2, c-Rel (Homo sapiens, UniProt Q04864).
T2 sequence (Q04864 2-619 limits assumed): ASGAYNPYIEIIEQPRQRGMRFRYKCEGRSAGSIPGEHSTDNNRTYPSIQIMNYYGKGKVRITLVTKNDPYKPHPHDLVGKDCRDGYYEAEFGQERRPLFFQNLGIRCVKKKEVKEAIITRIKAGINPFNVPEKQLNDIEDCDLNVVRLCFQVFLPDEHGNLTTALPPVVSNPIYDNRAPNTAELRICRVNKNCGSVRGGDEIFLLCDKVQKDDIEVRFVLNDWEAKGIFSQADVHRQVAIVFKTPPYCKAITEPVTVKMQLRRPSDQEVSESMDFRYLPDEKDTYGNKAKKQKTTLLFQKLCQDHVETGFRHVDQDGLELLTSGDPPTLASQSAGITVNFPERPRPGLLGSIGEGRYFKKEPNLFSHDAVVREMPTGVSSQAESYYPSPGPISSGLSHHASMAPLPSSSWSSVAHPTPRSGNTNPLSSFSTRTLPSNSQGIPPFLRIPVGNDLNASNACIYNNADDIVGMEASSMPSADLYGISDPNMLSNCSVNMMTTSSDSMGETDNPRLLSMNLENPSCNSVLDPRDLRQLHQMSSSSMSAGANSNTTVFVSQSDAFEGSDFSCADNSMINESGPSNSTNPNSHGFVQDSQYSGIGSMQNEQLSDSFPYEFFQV
In words: TransAM NF-κB family DNA binding ELISA, c-Rel. It is filed as biochemical. The protocol: as §2

The target in a further experiment is T3, RelB (Homo sapiens, UniProt Q01201).
T3 sequence (Q01201 1-579): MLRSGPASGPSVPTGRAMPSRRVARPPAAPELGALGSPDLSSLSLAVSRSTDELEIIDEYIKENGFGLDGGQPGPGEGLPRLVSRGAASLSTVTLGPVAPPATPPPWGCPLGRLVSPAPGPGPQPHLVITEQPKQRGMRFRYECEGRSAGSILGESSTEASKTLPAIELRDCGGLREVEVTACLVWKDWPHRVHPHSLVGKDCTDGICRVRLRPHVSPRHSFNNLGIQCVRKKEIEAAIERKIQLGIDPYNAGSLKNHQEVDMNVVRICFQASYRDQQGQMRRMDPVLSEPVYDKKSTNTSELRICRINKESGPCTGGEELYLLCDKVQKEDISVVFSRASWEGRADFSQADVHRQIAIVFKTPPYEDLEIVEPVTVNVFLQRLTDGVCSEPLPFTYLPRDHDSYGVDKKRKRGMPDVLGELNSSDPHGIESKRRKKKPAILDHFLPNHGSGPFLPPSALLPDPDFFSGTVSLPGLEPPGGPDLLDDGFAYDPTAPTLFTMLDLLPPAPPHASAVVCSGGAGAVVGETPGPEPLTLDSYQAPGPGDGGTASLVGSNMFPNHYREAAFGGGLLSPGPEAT
In words: TransAM NF-κB family DNA binding ELISA, RelB. In kind it is biochemical. The protocol: as §2

Where [3] appears, read: binding to NF-κB consensus oligonucleotide, cells without % sign.

T1 sequence (Q04206 whole entry): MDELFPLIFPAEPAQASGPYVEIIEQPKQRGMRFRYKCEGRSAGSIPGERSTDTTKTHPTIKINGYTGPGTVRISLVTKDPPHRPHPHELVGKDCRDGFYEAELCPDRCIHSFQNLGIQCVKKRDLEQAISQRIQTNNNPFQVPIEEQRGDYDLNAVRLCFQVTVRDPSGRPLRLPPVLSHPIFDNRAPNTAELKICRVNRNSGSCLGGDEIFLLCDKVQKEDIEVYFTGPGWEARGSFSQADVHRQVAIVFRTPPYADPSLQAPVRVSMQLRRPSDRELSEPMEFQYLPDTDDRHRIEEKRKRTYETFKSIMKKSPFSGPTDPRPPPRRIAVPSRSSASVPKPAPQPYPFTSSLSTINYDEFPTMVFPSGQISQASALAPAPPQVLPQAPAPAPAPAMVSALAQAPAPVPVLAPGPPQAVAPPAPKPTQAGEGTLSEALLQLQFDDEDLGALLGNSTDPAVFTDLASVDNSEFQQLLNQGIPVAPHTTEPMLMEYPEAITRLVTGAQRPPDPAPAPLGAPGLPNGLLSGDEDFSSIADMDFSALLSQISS

Consider `Cc1ccc(C(=O)NC2=CC(=O)C3OC3C2O)c(O)c1` (racemic) [Example 3, (±)-2-hydroxy-N-(2-hydroxy-5-oxo-7-oxabicyclo[4.1.0]hept-3-en-3-yl)-4-methylbenzamide], for which the results for the EC50 with NF-κB [1] and with NF-κB [2] were 20 µM and 9 µM, respectively. The IC50 (as a rule, the concentration that inhibits the measured activity by half) on p65 (RelA) stood at 17 µM. The inhibition (in general, how much of the control response was suppressed) at 5 µM on c-Rel worked out at 5%; at RelB, 10%.
With `O=C(NC1=CC(=O)C2OC2C1O)c1ccc(Cl)cc1O` (racemic) [Example 2, (±)-4-chloro-2-hydroxy-N-(2-hydroxy-5-oxo-7-oxabicyclo[4.1.0]hept-3-en-3-yl)benzamide], the results for the EC50 in the experiment with NF-κB [1] and in the experiment with NF-κB [2] were 12 µM and 7 µM, respectively. This compound also registered an IC50 at p65 (RelA) of 26.3 µM. The results for the inhibition at 5 µM at c-Rel and at RelB were 7% and 18%, respectively.
The corresponding values for `O=C(NC1=CC(=O)C2OC2C1O)c1cc2ccccc2cc1O` (racemic) [Example 7, (±)-3-hydroxy-N-(2-hydroxy-5-oxo-7-oxabicyclo[4.1.0]hept-3-en-3-yl)-2-naphthamide] are 21 µM, 4.7 µM, 488 µM, 2% and 6%.
For `O=C(NC1=CC(=O)C2OC2C1O)c1cc2cc(Br)ccc2cc1O` (racemic) [Example 15, (±)-7-bromo-3-hydroxy-N-(2-hydroxy-5-oxo-7-oxabicyclo[4.1.0]hept-3-en-3-yl)-2-naphthamide], the values for the EC50 in the experiment on NF-κB [1] and with NF-κB [2] were 8 µM and 2.4 µM, respectively. In addition, the IC50 on p65 (RelA) stood at 241 µM; at c-Rel (setting [3]) it was 3.7 µM; at RelB (setting [3]), 3.9 µM.
